Measurements taken from ChEMBL document CHEMBL5356962, “Synthesis, activity, and their relationships of 2,4-diaminonicotinamide derivatives as EGFR inhibitors targeting C797S mutation” (Bioorg Med Chem Lett, 2024).

Legend:
[1] = target: Epidermal growth factor receptor (Homo sapiens, UniProt P00533, C797S/L858R/T790M); assay: Inhibition of EGFR L858R/T790M/C797S mutant (unknown origin) phosphorylation
[2] = target: Epidermal growth factor receptor (Homo sapiens, UniProt P00533); assay: Inhibition of wild-type EGFR (unknown origin) phosphorylation
[3] = target: Epidermal growth factor receptor (Homo sapiens, UniProt P00533, C797S/EX19DEL/T790M); assay: Inhibition of EGFR Del19/T790M/C797S mutant (unknown origin) phosphorylation
BaF3 [4] = assay: Inhibition of cell proliferation of mouse BaF3 cells expressing EGFR Del19/T790M/C797S mutant (unknown origin); type: functional
BaF3 [5] = assay: Inhibition of cell proliferation of mouse BaF3 cells expressing EGFR L858R/T790M/C797S mutant (unknown origin); type: functional
BaF3 [6] = assay: Inhibition of cell proliferation of mouse BaF3 cells expressing wild-type EGFR (unknown origin); type: functional

Chain of Epidermal growth factor receptor (Homo sapiens, UniProt P00533, C797S/L858R/T790M) (P00533 25-1210 T790M/C797S/L858R limits assumed): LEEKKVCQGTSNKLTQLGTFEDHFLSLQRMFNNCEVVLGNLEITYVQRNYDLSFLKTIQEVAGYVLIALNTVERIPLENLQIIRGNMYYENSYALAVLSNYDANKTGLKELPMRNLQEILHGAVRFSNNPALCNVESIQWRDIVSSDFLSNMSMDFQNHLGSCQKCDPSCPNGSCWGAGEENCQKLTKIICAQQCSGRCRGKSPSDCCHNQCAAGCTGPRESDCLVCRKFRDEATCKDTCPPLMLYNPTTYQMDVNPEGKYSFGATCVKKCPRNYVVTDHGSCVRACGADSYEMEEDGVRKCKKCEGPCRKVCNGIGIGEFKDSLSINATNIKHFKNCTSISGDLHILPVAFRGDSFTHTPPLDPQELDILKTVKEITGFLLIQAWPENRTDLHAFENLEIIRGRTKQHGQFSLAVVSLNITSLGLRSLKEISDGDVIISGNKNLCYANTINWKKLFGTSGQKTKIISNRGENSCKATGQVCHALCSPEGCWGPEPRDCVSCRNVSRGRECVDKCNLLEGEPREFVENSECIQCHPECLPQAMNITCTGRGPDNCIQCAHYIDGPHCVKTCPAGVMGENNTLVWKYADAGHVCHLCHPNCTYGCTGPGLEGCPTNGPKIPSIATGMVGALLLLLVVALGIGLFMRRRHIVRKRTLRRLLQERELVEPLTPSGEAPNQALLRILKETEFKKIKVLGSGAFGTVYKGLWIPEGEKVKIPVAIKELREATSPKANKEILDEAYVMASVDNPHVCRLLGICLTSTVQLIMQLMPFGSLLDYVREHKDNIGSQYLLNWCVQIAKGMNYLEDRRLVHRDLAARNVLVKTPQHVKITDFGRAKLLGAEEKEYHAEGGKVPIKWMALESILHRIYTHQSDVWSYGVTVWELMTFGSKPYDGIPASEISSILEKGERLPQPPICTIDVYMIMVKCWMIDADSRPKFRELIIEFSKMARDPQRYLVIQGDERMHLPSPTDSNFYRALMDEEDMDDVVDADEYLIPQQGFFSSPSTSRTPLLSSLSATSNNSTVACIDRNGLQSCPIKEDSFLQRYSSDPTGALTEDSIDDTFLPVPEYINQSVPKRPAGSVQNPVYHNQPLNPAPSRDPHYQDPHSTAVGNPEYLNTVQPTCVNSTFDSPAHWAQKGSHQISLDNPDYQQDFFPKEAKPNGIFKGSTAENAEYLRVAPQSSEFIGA
Chain of Epidermal growth factor receptor (Homo sapiens, UniProt P00533) (P00533 whole entry): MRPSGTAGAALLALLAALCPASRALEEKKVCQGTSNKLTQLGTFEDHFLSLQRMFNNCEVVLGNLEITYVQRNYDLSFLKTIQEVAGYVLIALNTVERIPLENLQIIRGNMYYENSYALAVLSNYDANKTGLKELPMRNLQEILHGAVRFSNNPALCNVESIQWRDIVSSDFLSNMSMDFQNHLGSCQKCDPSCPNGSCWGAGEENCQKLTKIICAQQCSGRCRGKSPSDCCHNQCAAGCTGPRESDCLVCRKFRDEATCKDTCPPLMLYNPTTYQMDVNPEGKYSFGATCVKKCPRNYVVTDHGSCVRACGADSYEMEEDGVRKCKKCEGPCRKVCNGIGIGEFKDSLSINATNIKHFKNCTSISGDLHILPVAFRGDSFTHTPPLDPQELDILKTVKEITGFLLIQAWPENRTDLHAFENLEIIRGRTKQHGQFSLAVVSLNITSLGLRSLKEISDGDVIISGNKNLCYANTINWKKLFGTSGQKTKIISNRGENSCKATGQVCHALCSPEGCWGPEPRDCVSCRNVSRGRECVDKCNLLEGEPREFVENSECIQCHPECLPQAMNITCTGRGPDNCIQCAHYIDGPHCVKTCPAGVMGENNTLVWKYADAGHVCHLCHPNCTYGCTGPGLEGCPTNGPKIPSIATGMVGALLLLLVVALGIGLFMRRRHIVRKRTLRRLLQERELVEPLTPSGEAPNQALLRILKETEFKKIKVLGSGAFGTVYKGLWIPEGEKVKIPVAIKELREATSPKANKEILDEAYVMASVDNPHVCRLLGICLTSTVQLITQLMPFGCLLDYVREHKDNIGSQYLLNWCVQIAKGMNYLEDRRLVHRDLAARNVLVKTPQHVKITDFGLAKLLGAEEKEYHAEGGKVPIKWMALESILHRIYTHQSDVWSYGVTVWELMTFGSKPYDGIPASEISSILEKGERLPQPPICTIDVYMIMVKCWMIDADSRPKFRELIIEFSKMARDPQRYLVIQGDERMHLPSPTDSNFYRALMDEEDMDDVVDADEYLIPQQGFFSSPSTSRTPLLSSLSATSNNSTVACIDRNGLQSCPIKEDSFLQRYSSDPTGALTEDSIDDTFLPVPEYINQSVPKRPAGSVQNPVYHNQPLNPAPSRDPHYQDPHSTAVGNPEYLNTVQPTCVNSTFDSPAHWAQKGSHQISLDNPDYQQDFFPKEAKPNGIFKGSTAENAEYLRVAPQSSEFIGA
Chain of Epidermal growth factor receptor (Homo sapiens, UniProt P00533, C797S/EX19DEL/T790M) (P00533 whole entry, looked up, stated change not applied): as the sequence (P00533 whole entry) above

Compound	IC50 [1]	IC50 [2]	IC50 [3]	GI50 (BaF3 [4]; Mus musculus, BaF3)	GI50 (BaF3 [5]; Mus musculus, BaF3)	GI50 (BaF3 [6]; Mus musculus, BaF3)	GI50 (BaF3 [4])	GI50 (BaF3 [5])	GI50 (BaF3 [6])
CC[C@H](C)Nc1cc(Nc2ccnc(-c3cnn(S(=O)(=O)C4CC4)c3)n2)ncc1C(=O)N(C)C	300 nM	> 5000 nM	450 nM	–	–	–	–	–	–
CC[C@H](C)Nc1cc(Nc2ccnc(-c3cnn(S(=O)(=O)C4CC4)c3)n2)ncc1C(=O)NCCN(C)C	10 nM	265 nM	11 nM	193 nM	446 nM	1220 nM	–	–	–
CC(C)Oc1cc(Nc2ccnc(-c3cnn(S(=O)(=O)C4CC4)c3)n2)ncc1C(=O)N1CC(C(C)(C)O)C1	> 5000 nM	> 5000 nM	> 5000 nM	–	–	–	–	–	–
CC(C)Nc1cc(Nc2ccnc(-c3cnn(S(=O)(=O)C4CC4)c3)n2)ncc1C(=O)N1CC(C(C)(C)O)C1	51 nM	552 nM	72 nM	–	–	–	–	–	–
CC[C@H](C)Nc1cc(Nc2ccnc(-c3cnn(S(=O)(=O)C4CC4)c3)n2)ncc1C(=O)NCCC(F)F	–	–	–	35 nM	81 nM	1080 nM	–	–	–
CC[C@H](C)Nc1cc(Nc2ccnc(-c3cnn(S(=O)(=O)C4CC4)c3)n2)ncc1C(=O)NCCCF	3.7 nM	55 nM	4.5 nM	56 nM	129 nM	1050 nM	–	–	–
CC[C@H](C)Nc1cc(Nc2ccnc(-c3cnn(S(=O)(=O)C4CC4)c3)n2)ncc1C(=O)NC	3.6 nM	45 nM	3.6 nM	68 nM	163 nM	927 nM	–	–	–
CCC(=O)c1cnc(Nc2ccnc(-c3cnn(S(=O)(=O)C4CC4)c3)n2)cc1N[C@@H](C)CC	11 nM	212 nM	13 nM	–	–	–	–	–	–
CCNC(=O)c1cnc(Nc2ccnc(-c3cnn(S(=O)(=O)C4CC4)c3)n2)cc1N[C@@H](C)CC	5.6 nM	77 nM	6 nM	72 nM	191 nM	1270 nM	–	–	–
CCNS(=O)(=O)c1cnc(Nc2ccnc(-c3cnn(S(=O)(=O)C4CC4)c3)n2)cc1N[C@@H](C)CC	4880 nM	> 5000 nM	> 5000 nM	–	–	–	–	–	–
CC[C@H](C)Nc1cc(Nc2ccnc(-c3cnn(S(=O)(=O)C4CC4)c3)n2)ncc1C(=O)N1CC(C(C)(C)O)C1	22 nM	235 nM	30 nM	–	–	–	–	–	–
CC[C@H](C)Nc1cc(Nc2ccnc(-c3cnn(S(=O)(=O)C4CC4)c3)n2)ncc1C(=O)NC1CCOCC1	–	–	–	156 nM	452 nM	1660 nM	–	–	–
C=CC(=O)Nc1cc(Nc2nccc(-c3cn(C)c4ccccc34)n2)c(OC)cc1N(C)CCN(C)C [OSIMERTINIB]	–	–	–	–	–	–	2060 nM	1290 nM	107 nM
